# Laboratory results as given in patent US12697366B2, “Thermogenic compositions and methods” (Ohio State Innovation Foundation, priority 2016, dated 2026).
# Experiments:
# [1] = system: iAb (omental) fat explants; test: LEP release from iAb (omental) fat explants of an obese patient (ELISA); assay type: cell-based, human; conditions: different EREG concentrations, 2 h
# Protocol: FIGS. 14A to 14N show EREG induces expression of thermogenic and PPARα-target genes, suppresses inflammatory genes, and stimulates leptin secretion. FIGS. 14A to 14H and 14L: Markers for thermogenesis, adipogenesis, and inflammatory genes were analyzed using homogenates from whole iAb fat pads isolated from Veh- (white bars) and EREG-treated (black bars) DIO mice (Study 3). Gene expression was quantified using a customized NanoString panel. Data represent mean±SD, n.s.,—non-significant. FIG. 14I: LEP was measured in plasma in the same mice by ELISA. Data (mean±SD) are shown as percent to control (Veh, 100%) and is indicated as a dashed line. FIG. 14J: LEP release after stimulation with different concentrations of recombinant human EREGs was measured in explants of iAb (omental) tissue obtained from an obese insulin resistant patient. FIG. 14K: LEP release after stimulation of explants from same donor with and without EREG (50 ng/mL) in the presence and absence of insulin (Ins, 10 μg/mL), MAPK-I, EGFR-I, PI3K-I. Inhibitors concentrations were described in FIG. 1. FIG. 14M: LEP release after stimulation of iAb fat explants (2 h) from WT mice with different concentrations of recombinant mouse EREG. Experiment was repeated in three different WT mice. Data (mean±SD) are shown as percent to control (Veh, 100%). FIG. 14N: LEP release following stimulation of iAb fat explants (2 h) from WT mice with inhibitors of EGFR (10 μM) and MAPK (10 μM) in the presence or absence of EREG (50 ng/ml). Data (mean±SD) are shown as percent to control (Veh, 100%).
# Abdominal fat tissue obtained from an obese patient was excised into 35 mg sections for stimulation with EREG. Explants were stimulated with EREG in DMEM containing 1% FBS for 2 h. Media was collected after 2 h, lyophilized and reconstituted in 120 μL deionized water for leptin detection using ELISA kit (Alpco, Salem, NH).
# [2] = system: omental iAb preadipocytes; test: FD-glucose uptake in human omental iAb preadipocytes; assay type: cell-based; conditions: for glucose uptake in preadipocytes from lean insulin-sensitive patients: EREG vs insulin; for glucose uptake in preadipocytes from an insulin resistant patient: different doses of EREG, insulin 10 μg/ml
# Protocol: FIGS. 16A to 16M show EREG improves glucose uptake in ob/ob mice and in mouse and human preadipocytes. FIG. 16A: GTT was performed on fasting Veh (open circles) and EREG-treated (closed circles) ob/ob (N=5/group, Study 4) mice (12 hrs) using a single 25% dextrose injection (0.004 mL/g body weight). Asterisks indicate significant differences between Veh- and EREG-treated groups. FIG. 16B: ITT was performed in the same mice groups. […]: Fluorescently-labelled (FD) glucose uptake was measured in mouse […] preadipocytes. FIG. 16C: Preadipocytes were treated with vehicle, insulin (ins), EREG and forskolin for 30 mins. […] Asterisks represent significant differences compared to vehicle (P<0.05). FIG. 16D: Dose dependent increase in FD-glucose uptake by 3T3-L1 preadipocytes stimulated with different EREG concentrations. Data are shown as a percent of Veh-treated control. FIGS. 16E to 16G: FD-glucose uptake was measured in omental iAb preadipocytes isolated from lean (FIG. 16E) and obese insulin-resistant (FIG. 16F, 16G) patients in the presence of insulin, EREG, and forskolin. […] Omental preadipocytes from obese insulin resistant […] (FIG. 16G) and […] (FIG. 16K) were also stimulated with and without EREG in presence and absence of EGFR and MAPK inhibitors for 30 mins. Data were calculated as a percent to non-stimulated control (Veh, 100%, dash line) and shown as a mean±SD. Asterisks represent significant differences compared to vehicle (P<0.05), Mann-Whitney U test. FIG. 16H: FD-glucose uptake was measured in mouse 3T3-L1 preadipocytes with or without EREG (50 ng/mL) and inhibitors of MAPK and PI3K (MAPK-I, 10 uM, and PI3K-I, 200 nM). Data (mean±SD) are shown as percent to control (Veh 100%). […] P<0.05 indicate significant differences between EREG-treated and PI3K-I/EREG treated groups. Asterisks indicate significant differences between vehicle control and treatments with inhibitors. FIG. 16I: Phosphorylated (p-Akt) and non-phosphorylated (total) Akt protein levels were measured in mouse 3T3-L1 preadipocytes stimulated with or without EREG (50 ng/ml), PI3K-I (200 nM) for 20 mins by western blot and quantified by ImageJ Software. […] Asterisks represent significant differences compared to vehicle (P<0.05). FIG. 16J: Plasma insulin levels in fasting Veh and EREG-treated ob/ob mice measured by ELISA. FIG. 16L: Phosphorylated Akt protein levels were measured by western blot in human preadipocytes from an obese person stimulated with or without EREG (50 ng/ml) and PI3K-I (200 nM) for 20 mins. […] Asterisks represent significant differences compared to vehicle (P<0.05). Mann-Whitney U test. FIG. 16M: Schematic depicting two different pathways involved in EREG-mediated induction of thermogenesis and glucose uptake. EREG acts via MAPK to induce leptin secretion and also stimulates hormone sensitive lipase (HSL). HSL hydrolyzes free fatty acids activating PPARα activation. EGF, EGFR inhibition, or MAPK inhibition streamlines EREG-dependent PI3K/Akt activation that increase glucose uptake.
# Human stromal vascular fraction (SVF) was isolated from iAb (omental) fat of lean and obese men and women as described before and maintained in preadipocyte culture media (Lonza, Allendale, NJ). Differentiation was carried out for 9-10 days using preadipocyte culture media supplemented with insulin, dexamethasone, IBMX and indomethacin (Lonza, Allendale, NJ).
# Glucose uptake assay was performed using glucose uptake cell-based assay kit (Cayman Chemical, Ann Arbor, MI). 3T3-L1 or human preadipocytes were cultured at a density of 5×10^4 per well into a 96-well plate (n=7) in high glucose media and grown overnight. Old cell culture medium was removed the next day and washed with PBS to remove residual glucose. Supplied 2-deoxy-2-[(7-nitro-2,1,3-benzoxadiazol-4-yl)amino]-D-glucose) (2-NBDG) was diluted to 150 μg/mL in DMEM medium without glucose, phenol red, L-glutamine, sodium pyruvate, and HEPES (Life technologies, Grand Island, New York). […]
# [3] = system: GLUT4; test: GLUT4-GFP translocation in transfected NIH-3T3 cells (confocal microscopy); assay type: cell-based; conditions: insulin 10 μg/mL, nanoscaffold 10 μM
# Text: FIGS. 30A to 30D show translocation of GLUT4 (the major glucose transporter of adipocytes). Non-differentiated NIH-3[…][…]-GFP plasmid ([…] #52872) on Petri-35 dishes with coverslip ([…], cat #[…]-1.5-14-C, USA). […] FIG. 30A: GLUT4 (white vesicles) in cells (arrow) treated with vehicle are mainly in the cytosol. […] All images were taken at 60× magnification.
# [4] = insulin resistant patient, EREG with EGFR inhibitor, 30 mins
substance,measurement,setting,value
"EREG: Epiregulin, member of the epidermal growth factor family; recombinant mouse or human protein",release of LEP from iAb fat explants,[1],dose dependent release
same,glucose uptake in preadipocytes from lean insulin-sensitive patients,[2],induced similar glucose uptake
same,glucose uptake in preadipocytes from an insulin resistant patient,[2],dose-dependent fashion
same,"glucose uptake with inhibition of EGFR, compared to insulin response (100%)",[2]; [4],212%
same,"glucose uptake with inhibition of EGFR, compared to non-treated preadipocytes (100%)",[2]; [4],268%
insulin: insulin (bovine or human),GLUT4 translocation,[3],translocated from cytosol to membrane
same,glucose uptake in preadipocytes from lean insulin-sensitive patients,[2],induced similar glucose uptake
same,glucose uptake in preadipocytes from an insulin resistant patient,[2],not significant
